Laboratory results: ChEMBL document CHEMBL4507310, “Data for DCP probe A-1211212” (2021)

Experiments:
[1] = system: Hepatocyte growth factor receptor (Homo sapiens), P08581 [Y1235D]; details: Compound concentration 1000.0 nM
[2] = molecular target: Cyclin-dependent kinase-like 1 (Homo sapiens) (UniProt Q00532); details: Compound concentration 1000.0 nM
[3] = molecular target: Phosphatidylinositol 4,5-bisphosphate 3-kinase catalytic subunit alpha isoform (Homo sapiens) (UniProt P42336); details: Compound concentration 1000.0 nM
[4] = molecular target: SRSF protein kinase 1 (Homo sapiens) (UniProt Q96SB4); details: Compound concentration 1000.0 nM
[5] = molecular target: Wee1-like protein kinase (Homo sapiens) (UniProt P30291); details: Compound concentration 1000.0 nM
[6] = molecular target: Serine/threonine-protein kinase N1 (Homo sapiens) (UniProt Q16512); details: Compound concentration 1000.0 nM
[7] = molecular target: BMP-2-inducible protein kinase (Homo sapiens) (UniProt Q9NSY1); details: Compound concentration 1000.0 nM
[8] = molecular target: Tyrosine-protein kinase JAK1 (Homo sapiens) (UniProt P23458); details: Compound concentration 1000.0 nM
[9] = system: Phosphatidylinositol 4,5-bisphosphate 3-kinase catalytic subunit alpha isoform (Homo sapiens), P42336 [Q546K]; details: Compound concentration 1000.0 nM
[10] = molecular target: Sigma intracellular receptor 2 (Homo sapiens, UniProt Q5BJF2); assay: GPCRScan assay: inhibition of Sigma 2; design: radioligand conc. used [nm] 5.0, parental cells HEKT
[11] = molecular target: Serine/threonine-protein kinase 36 (Homo sapiens) (UniProt Q9NRP7); details: Compound concentration 1000.0 nM
[12] = molecular target: Type-1 angiotensin II receptor (Homo sapiens) (UniProt P30556); assay: AT1 (h) Eurofins-Cerep binding assay; design: ligand concentration 0.05 nM; details: filed as antagonist, Compound concentration 10.0 uM
[13] = molecular target: Serine/threonine-protein kinase LATS2 (Homo sapiens) (UniProt Q9NRM7); details: Compound concentration 1000.0 nM
[14] = molecular target: Tyrosine-protein kinase TXK (Homo sapiens) (UniProt P42681); details: Compound concentration 1000.0 nM
[15] = molecular target: Mitogen-activated protein kinase kinase kinase 2 (Homo sapiens) (UniProt Q9Y2U5); details: Compound concentration 1000.0 nM
[16] = molecular target: Cyclin-dependent kinase 14 (Homo sapiens) (UniProt O94921); details: Compound concentration 1000.0 nM
[17] = molecular target: Receptor-interacting serine/threonine-protein kinase 2 (Homo sapiens) (UniProt O43353); details: Compound concentration 1000.0 nM
[18] = molecular target: Substance-K receptor (Homo sapiens) (UniProt P21452); assay: NK2 (h) Eurofins-Cerep binding assay; design: ligand concentration 0.1 nM; details: filed as agonist, Compound concentration 10.0 uM
[19] = molecular target: cAMP-dependent protein kinase catalytic subunit PRKX (Homo sapiens) (UniProt P51817); details: Compound concentration 1000.0 nM
[20] = molecular target: Histamine H2 receptor (Homo sapiens) (UniProt P25021); details: Compound concentration 10.0 uM
[21] = system: Tyrosine-protein kinase ABL1 (Homo sapiens), P00519 [T315I]; details: Compound concentration 1000.0 nM
[22] = system: Tyrosine-protein kinase ABL1 (Homo sapiens), P00519 [E255K]; details: Compound concentration 1000.0 nM
[23] = molecular target: Histamine H3 receptor (Homo sapiens) (UniProt Q9Y5N1); details: Compound concentration 10.0 uM
[24] = molecular target: Serine/threonine-protein kinase PLK3 (Homo sapiens) (UniProt Q9H4B4); details: Compound concentration 1000.0 nM
[25] = molecular target: Myosin light chain kinase family member 4 (Homo sapiens) (UniProt Q86YV6); details: Compound concentration 1000.0 nM
[26] = molecular target: Tyrosine-protein kinase Lyn (Homo sapiens) (UniProt P07948); details: Compound concentration 1000.0 nM
[27] = molecular target: TGF-beta receptor type-1 (Homo sapiens) (UniProt P36897); details: Compound concentration 1000.0 nM
[28] = molecular target: Serine/threonine-protein kinase 32A (Homo sapiens) (UniProt Q8WU08); details: Compound concentration 1000.0 nM
[29] = molecular target: Melatonin receptor type 1B (Homo sapiens) (UniProt P49286); assay: MT2 (ML1B) (h) Eurofins-Cerep binding assay; design: ligand concentration 0.05 nM; details: filed as agonist, Compound concentration 10.0 uM
[30] = molecular target: Dual specificity tyrosine-phosphorylation-regulated kinase 1B (Homo sapiens) (UniProt Q9Y463); details: Compound concentration 1000.0 nM
[31] = molecular target: Cyclin-dependent kinase-like 3 (Homo sapiens) (UniProt Q8IVW4); details: Compound concentration 1000.0 nM
[32] = molecular target: STE20-like serine/threonine-protein kinase (Homo sapiens) (UniProt Q9H2G2); details: Compound concentration 1000.0 nM
[33] = molecular target: Atypical kinase COQ8A, mitochondrial (Homo sapiens) (UniProt Q8NI60); details: Compound concentration 1000.0 nM
[34] = molecular target: Phosphatidylinositol 4,5-bisphosphate 3-kinase catalytic subunit delta isoform (Homo sapiens) (UniProt O00329); details: Compound concentration 1000.0 nM
[35] = molecular target: Serine/threonine-protein kinase Nek5 (Homo sapiens) (UniProt Q6P3R8); details: Compound concentration 1000.0 nM
[36] = system: Tyrosine-protein kinase ABL1 (Homo sapiens), P00519 [Q252H]; details: Compound concentration 1000.0 nM
[37] = molecular target: Serine/threonine-protein kinase PAK 3 (Homo sapiens) (UniProt O75914); details: Compound concentration 1000.0 nM
[38] = molecular target: SNF-related serine/threonine-protein kinase (Homo sapiens) (UniProt Q9NRH2); details: Compound concentration 1000.0 nM
[39] = molecular target: Delta-type opioid receptor (Homo sapiens) (UniProt P41143); assay: delta (DOP) (h) Eurofins-Cerep binding assay; design: ligand concentration 0.5 nM; details: filed as agonist, Compound concentration 10.0 uM
[40] = molecular target: Aurora kinase C (Homo sapiens) (UniProt Q9UQB9); details: Compound concentration 1000.0 nM
[41] = molecular target: 5-hydroxytryptamine receptor 1D (Homo sapiens) (UniProt P28221); details: Compound concentration 10.0 uM
[42] = system: Receptor-type tyrosine-protein kinase FLT3 (Homo sapiens), P36888 [D835V]; details: Compound concentration 1000.0 nM
[43] = molecular target: GABA-A receptor; anion channel (Rattus norvegicus) (UniProt O09028+P15431+P18506+P18508+P19969+P20236+P23574+P23576+P28471+P28473+P30191+P62813+P63079+P63138+Q91ZM7+Q9ES14); assay: BZD (central) Eurofins-Cerep binding assay; type: protein-complex assay; design: ligand concentration 0.4 nM; details: filed as agonist, Compound concentration 10.0 uM
[44] = molecular target: Serine/threonine-protein kinase BRSK2 (Homo sapiens) (UniProt Q8IWQ3); details: Compound concentration 1000.0 nM

Chain of Myosin light chain kinase family member 4 (Homo sapiens) (Q86YV6 whole entry): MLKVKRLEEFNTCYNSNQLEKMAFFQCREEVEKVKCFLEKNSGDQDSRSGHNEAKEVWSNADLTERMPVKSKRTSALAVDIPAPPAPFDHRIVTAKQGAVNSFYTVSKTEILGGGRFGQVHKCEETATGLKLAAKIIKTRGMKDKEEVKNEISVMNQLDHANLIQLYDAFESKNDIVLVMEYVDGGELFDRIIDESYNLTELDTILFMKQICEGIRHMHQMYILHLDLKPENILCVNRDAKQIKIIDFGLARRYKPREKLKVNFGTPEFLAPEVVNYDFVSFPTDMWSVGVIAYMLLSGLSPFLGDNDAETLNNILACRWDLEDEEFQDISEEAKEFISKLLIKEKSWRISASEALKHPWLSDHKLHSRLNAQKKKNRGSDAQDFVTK
Chain of Type-1 angiotensin II receptor (Homo sapiens) (P30556 whole entry): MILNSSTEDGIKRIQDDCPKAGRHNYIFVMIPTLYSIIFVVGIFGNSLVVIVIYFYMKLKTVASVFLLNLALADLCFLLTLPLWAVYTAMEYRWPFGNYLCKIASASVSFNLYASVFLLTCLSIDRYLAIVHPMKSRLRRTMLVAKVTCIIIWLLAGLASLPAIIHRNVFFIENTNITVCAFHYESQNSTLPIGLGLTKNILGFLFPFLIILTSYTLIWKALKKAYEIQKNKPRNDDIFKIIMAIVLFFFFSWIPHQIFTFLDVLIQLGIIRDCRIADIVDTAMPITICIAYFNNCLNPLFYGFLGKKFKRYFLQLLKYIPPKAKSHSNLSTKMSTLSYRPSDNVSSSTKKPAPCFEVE
Chain of Phosphatidylinositol 4,5-bisphosphate 3-kinase catalytic subunit alpha isoform (Homo sapiens) (P42336 whole entry, canonical isoform): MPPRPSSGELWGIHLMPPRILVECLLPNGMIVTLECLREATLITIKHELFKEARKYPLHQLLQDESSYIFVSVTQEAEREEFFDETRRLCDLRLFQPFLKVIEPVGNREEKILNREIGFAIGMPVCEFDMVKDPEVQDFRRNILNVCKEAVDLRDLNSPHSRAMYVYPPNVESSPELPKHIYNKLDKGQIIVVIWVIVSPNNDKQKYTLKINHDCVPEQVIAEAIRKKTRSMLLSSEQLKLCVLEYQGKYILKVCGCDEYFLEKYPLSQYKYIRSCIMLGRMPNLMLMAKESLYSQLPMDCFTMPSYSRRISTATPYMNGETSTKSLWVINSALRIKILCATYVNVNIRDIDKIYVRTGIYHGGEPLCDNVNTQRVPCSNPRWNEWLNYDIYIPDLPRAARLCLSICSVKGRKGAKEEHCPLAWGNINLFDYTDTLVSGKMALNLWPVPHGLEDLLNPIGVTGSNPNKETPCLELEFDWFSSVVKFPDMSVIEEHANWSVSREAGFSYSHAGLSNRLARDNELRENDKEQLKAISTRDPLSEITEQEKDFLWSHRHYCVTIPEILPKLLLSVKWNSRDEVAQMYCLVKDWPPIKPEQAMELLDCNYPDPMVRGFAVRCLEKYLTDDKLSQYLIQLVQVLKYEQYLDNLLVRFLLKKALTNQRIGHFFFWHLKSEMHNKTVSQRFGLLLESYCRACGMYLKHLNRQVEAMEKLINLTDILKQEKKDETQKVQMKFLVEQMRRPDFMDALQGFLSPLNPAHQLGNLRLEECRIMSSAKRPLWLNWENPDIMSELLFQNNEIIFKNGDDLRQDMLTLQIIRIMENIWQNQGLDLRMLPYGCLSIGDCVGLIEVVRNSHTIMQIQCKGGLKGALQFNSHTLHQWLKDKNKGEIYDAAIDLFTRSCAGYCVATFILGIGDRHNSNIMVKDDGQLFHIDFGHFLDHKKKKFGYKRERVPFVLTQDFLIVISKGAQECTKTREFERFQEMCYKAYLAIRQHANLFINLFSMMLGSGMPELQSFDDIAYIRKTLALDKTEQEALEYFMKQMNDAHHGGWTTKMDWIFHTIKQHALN
Chain of Receptor-interacting serine/threonine-protein kinase 2 (Homo sapiens) (O43353 whole entry): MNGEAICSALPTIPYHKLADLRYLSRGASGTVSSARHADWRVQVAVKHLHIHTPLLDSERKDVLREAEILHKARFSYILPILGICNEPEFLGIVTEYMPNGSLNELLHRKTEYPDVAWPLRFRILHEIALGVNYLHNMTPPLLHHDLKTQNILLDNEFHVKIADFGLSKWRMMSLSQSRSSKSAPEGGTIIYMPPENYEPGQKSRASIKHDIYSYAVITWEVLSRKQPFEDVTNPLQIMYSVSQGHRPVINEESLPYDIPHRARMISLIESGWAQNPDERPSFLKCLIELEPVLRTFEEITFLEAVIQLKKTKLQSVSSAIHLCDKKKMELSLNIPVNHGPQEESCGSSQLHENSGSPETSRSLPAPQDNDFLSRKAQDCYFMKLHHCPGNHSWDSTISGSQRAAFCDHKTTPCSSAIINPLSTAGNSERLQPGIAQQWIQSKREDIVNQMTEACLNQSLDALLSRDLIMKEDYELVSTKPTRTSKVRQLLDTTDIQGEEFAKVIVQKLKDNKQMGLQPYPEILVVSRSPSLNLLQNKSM
Chain of SRSF protein kinase 1 (Homo sapiens) (Q96SB4 whole entry): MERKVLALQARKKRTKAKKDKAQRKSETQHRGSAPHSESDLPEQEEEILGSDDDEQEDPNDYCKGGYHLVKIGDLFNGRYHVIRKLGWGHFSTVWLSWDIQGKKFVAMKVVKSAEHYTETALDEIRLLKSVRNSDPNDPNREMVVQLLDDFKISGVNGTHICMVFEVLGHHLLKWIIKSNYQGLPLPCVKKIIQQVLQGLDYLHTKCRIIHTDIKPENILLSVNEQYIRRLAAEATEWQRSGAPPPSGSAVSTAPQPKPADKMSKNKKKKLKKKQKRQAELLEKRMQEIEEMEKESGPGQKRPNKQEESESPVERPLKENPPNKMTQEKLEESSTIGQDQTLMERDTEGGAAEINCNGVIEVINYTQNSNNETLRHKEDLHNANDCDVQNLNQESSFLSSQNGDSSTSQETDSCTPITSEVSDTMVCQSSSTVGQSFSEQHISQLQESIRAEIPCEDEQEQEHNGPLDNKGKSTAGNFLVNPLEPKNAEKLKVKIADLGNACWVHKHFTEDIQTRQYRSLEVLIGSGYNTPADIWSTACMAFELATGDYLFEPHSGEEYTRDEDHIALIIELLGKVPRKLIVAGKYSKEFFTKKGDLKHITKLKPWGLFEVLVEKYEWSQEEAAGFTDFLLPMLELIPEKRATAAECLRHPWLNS
Chain of Serine/threonine-protein kinase 36 (Homo sapiens) (Q9NRP7 whole entry): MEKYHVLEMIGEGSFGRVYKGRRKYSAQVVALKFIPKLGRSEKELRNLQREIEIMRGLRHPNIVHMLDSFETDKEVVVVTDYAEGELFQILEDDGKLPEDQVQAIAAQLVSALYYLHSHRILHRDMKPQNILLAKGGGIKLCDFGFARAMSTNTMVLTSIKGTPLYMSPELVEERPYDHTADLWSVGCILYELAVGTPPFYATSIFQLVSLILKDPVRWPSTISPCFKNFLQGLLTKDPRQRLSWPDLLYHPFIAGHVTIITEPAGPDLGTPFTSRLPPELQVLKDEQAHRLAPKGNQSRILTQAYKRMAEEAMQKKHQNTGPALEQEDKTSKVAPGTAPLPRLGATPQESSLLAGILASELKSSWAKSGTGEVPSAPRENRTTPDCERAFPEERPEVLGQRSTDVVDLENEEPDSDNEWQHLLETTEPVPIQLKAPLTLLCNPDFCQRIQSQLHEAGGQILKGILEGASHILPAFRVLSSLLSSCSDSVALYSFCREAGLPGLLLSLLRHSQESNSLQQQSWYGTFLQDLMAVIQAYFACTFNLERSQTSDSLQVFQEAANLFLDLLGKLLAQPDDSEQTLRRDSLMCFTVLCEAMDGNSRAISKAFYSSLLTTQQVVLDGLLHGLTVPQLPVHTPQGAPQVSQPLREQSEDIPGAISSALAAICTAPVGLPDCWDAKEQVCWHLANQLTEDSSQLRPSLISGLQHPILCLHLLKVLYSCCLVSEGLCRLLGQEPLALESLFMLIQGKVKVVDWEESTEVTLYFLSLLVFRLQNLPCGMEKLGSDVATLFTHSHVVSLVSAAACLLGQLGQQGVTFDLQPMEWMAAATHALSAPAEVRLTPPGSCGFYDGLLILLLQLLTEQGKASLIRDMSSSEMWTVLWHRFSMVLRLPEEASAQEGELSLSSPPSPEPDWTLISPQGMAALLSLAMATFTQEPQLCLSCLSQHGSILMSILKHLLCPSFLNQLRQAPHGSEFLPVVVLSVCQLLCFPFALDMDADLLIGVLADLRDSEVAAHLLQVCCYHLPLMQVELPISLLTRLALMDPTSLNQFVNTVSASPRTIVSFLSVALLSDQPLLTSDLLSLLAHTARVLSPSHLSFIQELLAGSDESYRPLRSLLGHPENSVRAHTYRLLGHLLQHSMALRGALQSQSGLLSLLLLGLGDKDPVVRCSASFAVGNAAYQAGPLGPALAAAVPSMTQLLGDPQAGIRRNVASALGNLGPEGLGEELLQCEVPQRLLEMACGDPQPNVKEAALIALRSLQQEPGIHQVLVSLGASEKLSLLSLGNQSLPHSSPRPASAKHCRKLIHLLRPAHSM
Chain of Aurora kinase C (Homo sapiens) (Q9UQB9 whole entry): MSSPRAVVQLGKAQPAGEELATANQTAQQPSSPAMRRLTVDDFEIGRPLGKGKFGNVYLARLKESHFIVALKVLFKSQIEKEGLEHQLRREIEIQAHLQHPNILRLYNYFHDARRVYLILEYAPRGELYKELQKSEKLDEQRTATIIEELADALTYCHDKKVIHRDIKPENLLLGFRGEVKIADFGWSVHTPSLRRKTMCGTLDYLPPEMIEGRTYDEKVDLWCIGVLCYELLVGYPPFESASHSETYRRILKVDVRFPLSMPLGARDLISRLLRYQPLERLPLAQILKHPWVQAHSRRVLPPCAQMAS
Chain of Phosphatidylinositol 4,5-bisphosphate 3-kinase catalytic subunit alpha isoform (Homo sapiens), P42336 [Q546K] (P42336 whole entry Q546K, canonical isoform): as the sequence (P42336 whole entry, canonical isoform) above, with Q546K counted along it
Chain of Sigma intracellular receptor 2 (Q5BJF2 whole entry): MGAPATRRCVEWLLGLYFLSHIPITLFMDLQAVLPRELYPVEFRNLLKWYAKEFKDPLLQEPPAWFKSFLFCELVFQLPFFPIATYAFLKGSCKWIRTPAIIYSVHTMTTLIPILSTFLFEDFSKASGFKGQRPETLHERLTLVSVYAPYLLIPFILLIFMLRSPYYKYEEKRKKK

For `O=C(NS(=O)(=O)c1ccc(NCC2CCOCC2)c([N+](=O)[O-])c1)c1ccc(N2CCN(Cc3ccc(C(F)(F)F)cc3-c3ccc(Cl)cc3)CC2)cc1Oc1cnc2[nH]ccc2c1` [A-1210227], the residual activity [1] was 98%, the residual activity [2] was 100% and the residual activity [3] was 69%. It also gave a residual activity [4] of 100%, a residual activity [5] of 100% and a residual activity [6] of 100%. The residual activity [7] was 94%, the residual activity [8] was 100% and the residual activity [9] was 100%. For the same compound, the Ki [10] was 8.37 µM, the residual activity [11] was 88% and the % Inhibition of Control Specific Binding (Mean n=2) [12] was -3.9%. The residual activity [13] was 100%, the residual activity [14] was 94% and the residual activity [15] was 100%. For the same compound, the residual activity [16] was 100%, the residual activity [17] was 100% and the % Inhibition of Control Specific Binding (Mean n=2) [18] was -2.4%. The residual activity [19] was 100%, the inhibition [20] was 8.95% and the residual activity [21] was 100%. For the same compound, the residual activity [22] was 91%, the inhibition [23] was -1.15% and the residual activity [24] was 100%. It also gave a residual activity [25] of 100%, a residual activity [26] of 99% and a residual activity [27] of 93%. The residual activity [28] was 99%, the % Inhibition of Control Specific Binding (Mean n=2) [29] was 10.2% and the residual activity [30] was 80%. The residual activity [31] was 95%, the residual activity [32] was 100% and the residual activity [33] was 100%. For the same compound, the residual activity [34] was 60%, the residual activity [35] was 100% and the residual activity [36] was 84%. The residual activity [37] was 77%, the residual activity [38] was 100% and the % Inhibition of Control Specific Binding (Mean n=2) [39] was 7.4%. The residual activity [40] was 97%, the inhibition [41] was -6.27% and the residual activity [42] was 100%. It also gave a % Inhibition of Control Specific Binding (Mean n=2) [43] of 4.2% and a residual activity [44] of 87%.
`CO[C@H]1CC[C@H](CNc2ccc(S(=O)(=O)NC(=O)c3ccc(N4CCN(CC5=C(c6ccc(Cl)cc6)CC(C)(C)CC5)CC4)cc3Oc3cnc4[nH]ccc4c3)cc2[N+](=O)[O-])CC1` [A-1211212] showed a residual activity [1] of 92%, a residual activity [2] of 94% and a residual activity [3] of 77%. For the same compound, the residual activity [4] was 96%, the residual activity [5] was 100% and the residual activity [6] was 83%. The residual activity [7] was 94%, the residual activity [8] was 100% and the residual activity [9] was 100%. It also gave a Ki [10] of 1.49 µM, a residual activity [11] of 71% and a % Inhibition of Control Specific Binding (Mean n=2) [12] of 19.3%. For the same compound, the residual activity [13] was 100%, the residual activity [14] was 100% and the residual activity [15] was 68%. It also gave a residual activity [16] of 100%, a residual activity [17] of 85% and a % Inhibition of Control Specific Binding (Mean n=2) [18] of -6.1%. The residual activity [19] was 100%, the inhibition [20] was 13.6% and the residual activity [21] was 80%. The residual activity [22] was 74%, the inhibition [23] was 4.97% and the residual activity [24] was 100%. For the same compound, the residual activity [25] was 98%, the residual activity [26] was 74% and the residual activity [27] was 84%. It also gave a residual activity [28] of 99%, a % Inhibition of Control Specific Binding (Mean n=2) [29] of 32% and a residual activity [30] of 71%. For the same compound, the residual activity [31] was 83%, the residual activity [32] was 67% and the residual activity [33] was 99%. It also gave a residual activity [34] of 75%, a residual activity [35] of 88% and a residual activity [36] of 100%. It also gave a residual activity [37] of 64%, a residual activity [38] of 100% and a % Inhibition of Control Specific Binding (Mean n=2) [39] of 2.8%. It also gave a residual activity [40] of 87%, an inhibition [41] of 8.17% and a residual activity [42] of 100%. The % Inhibition of Control Specific Binding (Mean n=2) [43] was -1% and the residual activity [44] was 78%.
